Assay results from US7576071B2, “Antithrombotic compound” (sanofi-aventis, priority 2004, dated 2009).
Read-outs that look alike come from different tables or passages of the source.

Assays:
[1] = tested on: human platelets (platelet rich plasma), ADP-induced aggregation; assay: In vitro test for inhibition of human platelet aggregation induced by ADP; assay type: cell-based; settings: Platelet
Excerpt: I.a. In vitro Test for Inhibition of Human Platelet Aggregation Induced by ADP
Addition of adenosine diphosphate (ADP) to human platelet rich plasma (PRP) in vitro induces platelet aggregation. This aggregation can be assessed by measuring the optical density (OD) of the PRP. The in vitro test described here was used to determine the inhibitory activity of a test compound on the ADP-induced aggregation of human platelets. A micro plate reader is used to measure the activity of several compounds simultaneously.
(§1) An alternative vehicle is 0.9% NaCl in MQ H2O. The compound solution (either in MQ H2O or 0.9% NaCl in MQ H2O) is further diluted in 0.9% NaCl in MQ H2O.
Free-flowing blood (at least 100 mL) is taken from a healthy volunteer and collected in 0.1 volume 3.8% sodium citrate. 2H2O in distilled H2O (w/v). The final concentration is 0.38% sodium citrate.
The citrated blood is centrifuged at 1,600 N/kg (160 g) at RT. After 15 min, centrifugation is discontinued with the brake turned off and the supernatant (=PRP) is collected. • 2. ADP (Kordia/Chrono-par # 384). Before use, a solution of 50 μM in 0.9% NaCl is prepared. Equipment • 1. Sysmex blood cell counter model KX-21. • 2. Labsystems iEMS reader MF with a 620 nm filter, an orbital shaker set at 1,000 rpm and a constant temperature of 37° C. Absorption is measured with the Labsystems iEMS program. • 3. Blood collection system 600 mL with needle, art P4203 (NPBI). • 4. 96 wells flat bottom micro plates (Greiner Labortechnik). Procedure
The platelets in the supernatant (PRP) are counted using a Sysmex blood cell counter and the supernatant is diluted with PPP to obtain a PRP containing 400,000±50,000 plt/μL. PRP should stabilize at RT for at least 20 min but not longer than 3 h.
150 μL PRP is pipetted into a well of the micro plate. 30 μL test compound in a range of concentrations (7 concentrations per compound) or vehicle is added and the micro plate is placed in the Labsystems iEMS reader MF at 37° C. The optical density (OD620) is then measured at 620 nm. After shaking for 2 min in the reader (1,000 rpm), the OD is measured for the second time. This is to verify the stability of the platelets (absence of spontaneous platelet aggregation). Then, 20 μL of 50 μM ADP solution is added and the OD is kinetically measured every min for 14 min at 620 nm (FIG. 1). Between two measurements, the plate is shaking for 40 seconds at 1,000 rpm. Each test compound is investigated in at least 2 experiments using PRP from different volunteers.
The mean OD at each compound concentration (including vehicle) is calculated at t=0 min and t=10 min. The percentage inhibition at each concentration is calculated using the formula: […]
The IC50 of the test compound is the concentration of the test compound at which the ADP-induced platelet aggregation is reduced by 50%. For this, the percentage inhibition values are plotted against compound concentration. Then, IC50, nH (Hill slope) and efficacy of the test compound is calculated using Graphpad Prism 3.0 (with variable slope).
Reference: Salmon, D. M. (1996) Thrombosis Research 84, 213-216.

[2] = tested on: washed human platelets, TRAP-induced aggregation; assay: In vitro test for inhibition of human platelet aggregation induced by TRAP; assay type: cell-based; settings: Platelet
Excerpt: I.b. In vitro Test for Inhibition of Human Platelet Aggregation Induced by TRAP
Introduction: Addition of trombin receptor agonist peptide (TRAP) to washed human platelets (WPL) in vitro induces platelet aggregation. This aggregation can be determined by measuring the optical density of the WPL. The in vitro test described here is used to analyze the activity of a test compound to inhibit TRAP-induced aggregation of human platelets. A micro plate reader is used to measure the activity of several compounds simultaneously.
as §1
Free-flowing blood (at least 100 mL) is taken from a healthy volunteer and collected in 0.1 volume 3.8% sodium citrate. 2H2O in MQ H2O (w/v). The final concentration is 0.38% sodium citrate. The citrated blood is centrifuged at 1,600 N/kg (160 g) in Hettich Rotanta/AP centrifuge (750 rpm) at RT. After 15 min, centrifugation is discontinued with the brake turned off and the supernatant (=PRP) is collected. • 2. Washed platelets (WPL):
After adding freshly made 1 μL PGI2 solution per ml PRP, the suspension is centrifuged at 13,500 N/kg (1,350 g) for 10 min in a Hettich Rotanta/AP centrifuge (i.e., 2,800 rpm) at RT. After gentle resuspension of the pellet in the same volume of fresh Watson buffer containing 5 ng/mL PGI2, the suspension is centrifuged at 1,350 g (2,800 rpm) for 10 min at RT again. The final platelet pellet is resuspended in Watson buffer to give approx. 400,000±50,000 platelets/[…]. • 3. Watson buffer:
134 mM NaCl, 2.9 mM KCl, 12 mM NaHCO3, 0.34 mM Na2HPO4.2H2O, 1 mM MgCl2.6H2O, 5 mM Glucose and 5 mM HEPES in MQ H2O. The pH is adjusted to 7.4 with 1 M NaOH. • 4. Prostaglandin I2 (Sigma, P6188 powder):
The PGI2 stock solution of 1 mg/mL in 1 M KOH is stored in aliquots of 100 μL at −20° C. Immediately before use, a solution of 5 μg/mL in ice-cold 0.9% NaCl in MQ H2O is prepared. • 5. Human Fibrinogen (Kordia/ERL, art nr: FIB 2 powder):
0.5 g fibrinogen powder is dissolved in 50 mL MQ H2O under vacuum. This stock solution is stored in aliquots of 1 mL at −20° C. Before use, a solution of 0.5 mg/mL in saline is prepared.
Before use, a solution of 50 μM TRAP in 0.9% NaCl in MQ H2O is prepared. For each test, a fresh solution is made.
• 1. Sysmex cell counter model KX-21 • 2. Labsystems iEMS reader MF with a 405 nm filter, an orbital shaker set at 1,000 rpm and a constant temperature of 37° C. Absorptions are measured with the Labsystems iEMS program. • 3. Blood collection system 600 mL with needle, art nr P4203 (NPBI) • 4. 96 wells micro plates (Greiner Labortechnik) flat-bottom
Procedure: The WPL concentration is counted in a Sysmex blood cell counter and the suspension is diluted with Watson buffer to obtain a concentration of 400,000±50,000 plt/μL. Before use, WPL is allowed to stabilize at room temperature for at least 20 min but not longer than 3-4 hours.
TRAP-induced aggregation: 150 μL WPL is pipetted into a well of a micro plate. 15 μL test compound or vehicle and 15 μL fibrinogen solution is added and the micro plate is placed in the micro plate reader at 37° C. Then, the optical density (OD) is measured at 405 nm and after shaking for 2 min in the reader, the OD405 is measured again to verify the stability of the platelets (absence of spontaneous platelet aggregation). 20 μL of 50 μM TRAP is added and the OD405 is kinetically measured every min for 14 min at 405 nm. Between two measurements, the plate is shaking for 40 seconds at 1,000 rpm (FIG. 1). For determination of the IC50 of a test compound, each test compound is investigated in at least 2 experiments using WPL from different volunteers.
Evaluation of response: The mean OD of each concentration (including vehicle) is calculated at t=0 min and t=10 min. The percentage inhibition at each concentration is calculated using the formula: […]

[3] = 5 μM ADP, human PRP, mean of n experiments, entries marked b measured with a Chronolog aggregometer, others with micro plate reader, read-out: Inhibition of ADP-induced (5 μM) human platelet aggregation (IC50), mean
[4] = 5 μM TRAP, washed human platelets, mean of n experiments, entries marked b measured with a Chronolog aggregometer, others with micro plate reader, read-out: Inhibition of TRAP (5 μM)-induced human platelet aggregation (IC50), mean

With CC(C)(C)OC(=O)COCCOCCOCCOCCNC(=O)[C@H](Cc1ccccc1)NC(=O)[C@H](CC(=O)O)NC(=O)CCNC(=O)c1ccc(C(=N)N)cc1 [Compound I, tert-Butyl({N-(4-amidinobenzoyl)-β-alanyl}-L-aspartyl-L-phenylalanyl)-15-aza-3,6,9,12-tetraoxa-pentadecanoate] the IC50 [1, 3] was 610 nM and the IC50 [2, 4] was 220 nM.

For CC(C)(C)OC(=O)COCCOCCOCCOCCNC(=O)[C@H](Cc1ccccc1)NC(=O)[C@H](CC(=O)O)NC(=O)CCC(=O)Nc1ccc(C(=N)N)cc1 [Compound IV, tert-Butyl N-{(4-benzamidino)-succinamyl}-L-aspartyl-L-phenylalanyl-15-aza-3,6,9,12-tetraoxa-pentadecanoate], the IC50 [1, 3] was 350 nM and the IC50 [2, 4] was 120 nM.

O=C(O)C[C@H](NC(=O)[C@@H]1CCCN(C(=O)CCC2CCNCC2)C1)C(=O)O [Compound VI, {N-3-[4-piperidinepropionyl]-(R)-(−)-nipecotyl}-L-aspartate] was tested, and the IC50 [1, 3] was 22600 nM and the IC50 [2, 4] was 6290 nM.

With CC(C)(C)OC(=O)COCCOCCOCCOCCNC(=O)[C@H](CC(=O)O)NC(=O)[C@@H]1CCCN(C(=O)CCC2CCNCC2)C1 [Compound VII, tert-Butyl N-{[N-3-(4-piperidinepropionyl)-(R)-(−)-nipecotyl]-L-aspartyl}-15-aza-3,6,9,12-tetraoxa-pentadecanoate] the IC50 [1, 3] was 380 nM and the IC50 [2, 4] was 270 nM.

For CC(C)(C)OC(=O)COCCOCCOCCOCCNC(=O)[C@H](CC(=O)O)NC(=O)CCC(=O)Nc1ccc(C(=N)N)cc1 [III, tert-Butyl N-{(4-benzamidino)-succinamyl}-L-aspartyl-15-aza-3,6,9,12-tetraoxa-pentadecanoate], the IC50 [1, 3] was 380 nM and the IC50 [2, 4] was 250 nM.

CC(C)(C)OC(=O)COCCOCCOCCOCCNC(=O)[C@H](Cc1ccccc1)NC(=O)[C@H](CC(=O)O)NC(=O)[C@@H]1CCCN(C(=O)CCC2CCNCC2)C1 [IX, tert-Butyl N-{[N-3-(4-piperidinepropionyl)-(R)-(−)-nipecotyl]-L-aspartyl-L-phenylalanyl}-15-aza-3,6,9,12-tetraoxa-pentadecanoate] gave an IC50 [1, 3] of 1180 nM.

N=C(N)c1ccc(NC(=O)CCC(=O)N[C@@H](CC(=O)O)C(=O)O)cc1 [XVIII, reference compound] gave an IC50 [1, 3] of 2010 nM and an IC50 [2, 4] of 1190 nM.

Molecule O=C(O)CCNC(=O)[C@@H]1CCCN(C(=O)CCC2CCNCC2)C1 [XX, reference compound] has an IC50 [1, 3] of 310 nM and an IC50 [2, 4] of 380 nM.

In the case of CCCCS(=O)(=O)N[C@@H](Cc1ccc(OCCCCC2CCNCC2)cc1)C(=O)O [tirofiban, reference compound], the IC50 ([1]; Homo sapiens, read-out: IC50, inhibition of human platelet aggregation induced by 5 μM ADP (reference compound)) is reported as 30 to 60 nM and the IC50 ([2]; Homo sapiens, read-out: IC50, inhibition of human platelet aggregation induced by 5 μM TRAP (reference compound)) is reported as 30 to 60 nM.
